Assay results published in patent US10782292B2, “Antibiotic susceptibility testing via plasmonic imaging and tracking” (priority 2015, dated 2020).
“Also recorded” adds a separate entry of the source.

How the values were obtained:
E. coli O157:H7 [1] = test: Plasmonic imaging and tracking (PIT) of Z-movement (nanomotion) of single antibody-tethered bacterial cells; assay type: cell-based
E. coli O157:H7 [2] = test: Culturing in LB medium after antibiotic treatment on the sensor chip (validation of cell death); assay type: cell-based
Text: […] the addition of polymyxin B, Z-movement decreases from ±5 nm to ±0.5 nm, which is close to the Brownian motion of a dead bacterium. We further validated the metabolic state by culturing and elongating the tethered cell in standard Luria Broth (LB) media before adding the antibiotic.
Referring now to FIG. […] PMB is a bactericidal antibiotic which kills Gram-negative bacteria by permeabilizing the outer membrane.^60 At high concentrations, […], PMB also depolarizes the cytoplasmic membrane, causing ion-permeable pores in the cell envelope.^30 Within a few seconds after adding the antibiotic, there was a marked decrease in the Z-movement of the bacterial cell from about ±3 to about ±1 nm. We further observed that after a few minutes, the bacterial cell Z-movement reached a baseline value of ±0.5 nm. […] The decrease in bacterial cell length has been previously correlated to cell lysis and cell death after the addition of polypeptide antibiotics.^69 We validated the correlation between the decreases in nanomotion and change of the bacterial metabolic state by replacing the antibiotic-containing PBS with LB medium (lacking PMB) on the sensor chip. […] We subsequently collected a small sample volume from the above sensor chip and subjected it to culturing overnight in LB medium.
(§1) Referring now specifically to FIG. 3D, there shown are control experiment data comparing Z-movement in PBS 102 and on injections of 2% glucose 104, 1×PBS 106, and antibiotic 108. […] After subsequently eliminating glucose in the 1×PBS medium, the amplitude of the nanomotion, measured over 1 s windows for 20 s videos, decreased back to the level prior to the injection of glucose (as shown in FIG. 3E). The positive correlation between glucose injection and Z-movement strongly supports that bacterial cell nanomotion originates from metabolic activity rather than Brownian motion.

[3] = test system: UPEC E. coli strain CFT073; test: PIT of Z-movement (nanomotion) of UPEC cells immobilized with APTES linker; assay type: cell-based; details: PMB 1 mg/mL, APTES surface, 1×PBS, FIG. 12
Procedure: We immobilized the UPEC strain on the sensor using the (3-aminopropyl)-triethoxysilane (APTES) linker, rather than using the antibody immobilization for the E. coli O157:H7 study described above. We studied the nanomotion changes as antibiotic PMB acted on bacterial cells at a bactericidal concentration of 1 mg/mL. […] These experiments indicate that the methods may be used for different bacterial strains and different antibiotics. To fully establish the present method for rapid AST in clinical settings, additional and more comprehensive tests will still be needed in the future.
An aliquot of frozen E. coli O157:H7 or E. coli CFT073 strain was thawed and used to inoculate 10 mL of LB medium. […]
All plasmonic imaging sequences were collected at 106 fps at a pixel resolution of 640×480. […] Images were recorded in either transmitted or plasmonic imaging mode for various time durations. […]
More specifically, the plasmonic image intensity was calculated by obtaining averaged intensity within a fixed area around the bacterial cell using the bare gold chip regions as reference. The Z-distance of the bacterial cell above the sensor surface was then calculated from the plasmonic image intensity (Iz) with a calibrated curve, given by Iz=I0 exp(−Δz/L), where I0 is a constant, Δz is the z displacement of a bacterial cell, and L is the decay constant. […]

E. coli O157:H7 [4] = test: Transmitted microscope image of bacterial cell length after adding antibiotic; assay type: cell-based
Procedure: Referring now to FIG. 3C the effect of antibiotic polymycin B at a concentration of 500 μg/mL on Z-movement of a bacterial cell is shown. […] PMB is a bactericidal antibiotic which kills Gram-negative bacteria by permeabilizing the outer membrane.^60 At high concentrations, such as […] used in this study, PMB also depolarizes the cytoplasmic membrane, causing ion-permeable pores in the cell envelope.^30 Within a few seconds after adding the antibiotic, there was a marked decrease in the Z-movement of the bacterial cell from about ±3 to about ±1 nm. We further observed that after a few minutes, the bacterial cell Z-movement reached a baseline value of ±0.5 nm. […]
as §1, with “The positive correlation between glucose injection and Z-movement strongly supports that bacterial cell nanomotion originates from metabolic activity rather than Brownian motion.” left out
All plasmonic imaging sequences were collected at 106 fps at a pixel resolution of 640×480. […] Images were recorded in either transmitted or plasmonic imaging mode for various time durations.

Gram-negative bacteria = details: literature reference 30; cited from earlier work
UPEC strain = test: Overnight culturing in LB medium after antibiotic treatment (validation of cell death), UPEC; assay type: cell-based, E. coli CFT073; details: after PMB 1 mg/mL

Compound	Change in nanomotion (Z-movement) after streptomycin (E. coli O157:H7 [1]; streptomycin 1 mg/mL, PBS supplemented with LB (0.4×LB media), FIG. 13)	Overnight culturing after streptomycin (E. coli O157:H7 [2]; after streptomycin 1 mg/ml)	Change in nanomotion (Z-movement) of UPEC cells ([3]; listed as PMB)	Change in nanomotion (Z-movement) of UPEC cells ([3]; listed as polymycin B)	Cell length in transmitted microscope image after antibiotic (E. coli O157:H7 [4]; PMB 75 µg/mL, FIG. 11)	Bacterial cell length after adding antibiotic (E. coli O157:H7 [4]; high antibiotic concentration (500 g/mL study))	Concentration at which bactericidal activity has been observed (Gram-negative bacteria)	Overnight culturing in LB medium of UPEC sample (UPEC strain; listed as PMB)	Overnight culturing in LB medium of UPEC sample (UPEC strain; listed as polymycin B)	Change in nanomotion (Z-movement) at sub-bactericidal concentration (E. coli O157:H7 [1]; 0.5 μg/ml (b80 prints 0.5 g/mL), after 20 min, 1×PBS, FIG. 10, listed as PMB)	Change in nanomotion (Z-movement) at 5× bactericidal concentration (E. coli O157:H7 [1]; 100 μg/m, 1×PBS, FIG. 10, listed as PMB)	Change in nanomotion after antibiotic in glucose control experiment (E. coli O157:H7 [1]; PMB 75 µg/mL (bactericidal concentration), FIG. 3D)	Change in Z-motion of a bacterial cell after adding antibiotic (E. coli O157:H7 [1]; added at t=120 s, FIG. 3A)	Nanomotion after replacing antibiotic-containing PBS with LB medium (E. coli O157:H7 [1]; after PMB 500 µg/mL, LB lacking PMB)	Bacterial growth on overnight culturing in LB medium (E. coli O157:H7 [2]; after PMB 75 µg/mL)	Cellular growth on subsequent incubation in LB media (E. coli O157:H7 [2]; after polymyxin B 75 μg/ml)	Growth of bacterial cells after overnight incubation in LB medium (E. coli O157:H7 [2]; sample from sensor chip after PMB 500 µg/mL)
[H]/N=C(/N)N[C@H]1[C@H](O)[C@@H](O)[C@H](O[C@@H]2O[C@@H](C)[C@](O)(C=O)[C@H]2O[C@@H]2O[C@@H](CO)[C@H](O)[C@@H](O)[C@@H]2NC)[C@@H](N/C(N)=N\[H])[C@@H]1O [streptomycin]	decrease in nano-motion; also recorded: decrease in the nanomotion	confirmed the death of the bacteria	–	–	–	–	–	–	–	–	–	–	–	–	–	–	–
Polymyxin B	–	–	decrease in bacterial nanomotion	large decrease in the nano-motion	visible decrease in cell length	decreases in bacterial cell length	20 g/mL	no bacterial growth	confirmed the death of the bacteria	did not observe changes in the nanomotion; also recorded: does not change the Z-movement	significant decrease in nanomotion; also recorded: large decrease in Z-movement	decrease in bacterial nanomotion	large drop in Z-motion	no further change in the bacterial nanomotion	no bacterial growth	did not lead to cellular growth	no growth of bacterial cells
